Test [1] has as its system BDCA3 DC. Briefly: Test of promoting interferon λ3 production by BDCA3 DC co-cultured with lactic acid bacteria suspension. The note with it: 10 μM chloroquine, 24 hours. The test is classed as cell-based, human. On the procedure: First, an MRS medium containing 10% (w/v) salt was inoculated with strain KK221 so that a concentration became 1×10^7 cells/ml, and therefore a stock solution of lactic acid bacteria was prepared. The stock solution of lactic acid bacteria was statically cultured at 30° C. for 48 to 72 hours, and then subjected to a boiling and pasteurization treatment at 95° C. for 10 minutes, and therefore a pasteurization-treated culture solution was prepared. […]
Activity of promoting interferon λ production by the prepared lactic acid bacteria suspension was evaluated as follows by using dendritic cells collected and prepared from the peripheral blood of a non-virus infected healthy subject. […]
The number of cells of each isolated DC was measured, and a cell stock solution was prepared using an IMDM medium (GIBCO) containing 25 mM D-glucose, 25 mM HEPES, and […] so that a concentration became 5×10^4 cells/ml. […]
Using the recovered culture supernatant, interferon λ3 was measured by a chemiluminescent enzyme immunoassay method according to a method described in a document of Sugiyama, et al. [Sugiyama M, et al. Hepatol Res. 42 (11): 1089-1099, 2012]. […]

Test [2] has as its system BDCA3 DC. The experiment in a line: Test of promoting cytokine production by BDCA3 DC (cytometric beads array). The note with it: lactic acid bacteria count/DC count=100. Type of test: cell-based, human. On the procedure: Poly IC or the lactic acid bacteria suspension prepared by using strain KK221 according to Example 1, and BDCA3 DC were prepared and co-cultured so that lactic acid bacteria count/DC count=100, and the measurement of the activity of promoting production of various cytokines was carried out.
Note that each of TNFα, IL-10, IL-1β, IL-6, and IL-12p70 was measured by using cytometric beadsarray (CBA; Becton, Dickinson and Company).

Consider one substance from US20190099456A1, “COMPOSITION FOR PROMOTING INTERFERON LAMBDA PRODUCTION AND PRODUCTION METHOD THEREFOR” (KIKKOMAN CORPORATION, priority 2016, published 2019).

Turning to Poly IC, in the test on BDCA3 DC [1], the “activity of promoting interferon λ production according to addition of chloroquine” value is “deteriorated”. Moreover, the “production of various cytokines (TNFα, IL-10, IL-1β, IL-6, IL-12p70, interferon α, interferon λ) by BDCA3 DC” value in the test with BDCA3 DC [2] was “nonspecifically promoted production of TNFα, interferon α, IL-6, and the like in addition to interferon λ (IL28B)”.
